From ChEMBL document CHEMBL4411307, “N,N'-diaryl-bishydrazones in a biphenyl platform: Broad spectrum antifungal agents” (Eur J Med Chem, 2019)
pIC50: −log10 of the molar value. Values after ≈ are worked out from the molar mass of the structure shown. Active and inactive are the calls of the source. The rule behind the calls is not given here.

Tests used:
[1] = Selectivity index, ratio of compound concentration showing <20 to <30% hemolysis in mouse RBC to MIC for fluconazole/ITC-resistant Candida albicans ATCC MYA-1237; type: toxicity; conditions: mouse red blood cells (RBC), read-out: Selectivity Index
Candida albicans [2] = assay: Antifungal activity against fluconazole/ITC-resistant Candida albicans ATCC 90819 measured after 48 hrs by CLSI M27-A3 protocol based method; type: functional; conditions: ATCC 90819, 48 h
[3] = Selectivity index, ratio of CC50 for human A549 cells to MIC for Candida parapsilosis ATCC 22019; type: toxicity; conditions: read-out: Selectivity Index
[4] = Selectivity index, ratio of CC50 for human A549 cells to MIC for Candida glabrata ATCC 2001; type: toxicity; conditions: read-out: Selectivity Index
[5] = Selectivity index, ratio of compound concentration showing <20 to <30% hemolysis in mouse RBC to MIC for Aspergillus nidulans ATCC 38163; type: toxicity; conditions: mouse red blood cells (RBC), read-out: Selectivity Index
[6] = Hemolytic activity in mouse RBC at […] ug/ml after 1 hr relative to control; type: ADME, cell-based, Erythrocyte; conditions: red blood cells (erythrocytes), read-out: Activity
[7] = Selectivity index, ratio of compound concentration showing <20 to <30% hemolysis in mouse RBC to MIC for Candida krusei ATCC 6258; type: toxicity; conditions: mouse red blood cells (RBC), read-out: Selectivity Index
[8] = Selectivity index, ratio of compound concentration showing <20 to <30% hemolysis in mouse RBC to MIC for Candida glabrata ATCC 2001; type: toxicity; conditions: mouse red blood cells (RBC), read-out: Selectivity Index
[9] = Selectivity index, ratio of compound concentration showing <20 to <30% hemolysis in mouse RBC to MIC for fluconazole/ITC-resistant Candida albicans ATCC 10231; type: toxicity; conditions: red blood cells (erythrocytes), read-out: Selectivity Index
[10] = Selectivity index, ratio of CC50 for human A549 cells to MIC for fluconazole/ITC-susceptible Candida albicans ATCC MYA-2310; type: toxicity; conditions: read-out: Selectivity Index
Candida albicans [11] = assay: Antifungal activity against fluconazole/ITC-susceptible Candida albicans ATCC MYA-2876 measured after 48 hrs by CLSI M27-A3 protocol based method; type: functional; conditions: ATCC MYA-2876, 48 h
[12] = Hemolytic activity in mouse RBC at 7.8 ug/ml after 1 hr relative to control; type: ADME, cell-based, Erythrocyte; conditions: red blood cells (erythrocytes), read-out: Activity
Aspergillus terreus = assay: Antifungal activity against Aspergillus terreus ATCC MYA-3633 measured after 48 hrs by CLSI M38-A2 protocol based method; type: functional; conditions: ATCC MYA-3633, 48 h
Pichia kudriavzevii = assay: Antifungal activity against Candida krusei ATCC 6258 measured after 48 hrs by CLSI M27-A3 protocol based method; type: functional; conditions: ATCC 6258, 48 h
A549 = assay: Cytotoxicity against human A549 cells after 24 hrs by resazurin based assay; type: cell-based; conditions: a549, 24 h
[13] = Hemolytic activity in mouse RBC at 1.95 ug/ml after 1 hr relative to control; type: ADME, cell-based, Erythrocyte; conditions: red blood cells (erythrocytes), read-out: Activity
Candida albicans [14] = assay: Antifungal activity against fluconazole/ITC-resistant Candida albicans ATCC 64124 measured after 48 hrs by CLSI M27-A3 protocol based method; type: functional; conditions: ATCC 64124, 48 h
Aspergillus flavus = assay: Antifungal activity against Aspergillus flavus ATCC MYA-3631 measured after 48 hrs by CLSI M38-A2 protocol based method; type: functional; conditions: ATCC MYA-3631, 48 h
Candida parapsilosis = assay: Antifungal activity against Candida parapsilosis ATCC 22019 measured after 48 hrs by CLSI M27-A3 protocol based method; type: functional; conditions: Lodderomyces parapsilosis, ATCC 22019, 48 h
[15] = Selectivity index, ratio of CC50 for human A549 cells to MIC for fluconazole/ITC-resistant Candida albicans ATCC 10231; type: toxicity; conditions: read-out: Selectivity Index
[16] = Selectivity index, ratio of CC50 for human A549 cells to MIC for Aspergillus flavus ATCC MYA-3631; type: toxicity; conditions: read-out: Selectivity Index
Aspergillus nidulans = assay: Antifungal activity against Aspergillus nidulans ATCC 38163 measured after 48 hrs by CLSI M38-A2 protocol based method; type: functional; conditions: ATCC 38163, 48 h
[17] = Selectivity index, ratio of compound concentration showing <20 to <30% hemolysis in mouse RBC to MIC for fluconazole/ITC-resistant Candida albicans ATCC 90819; type: toxicity; conditions: red blood cells (erythrocytes), read-out: Selectivity Index
[18] = Selectivity index, ratio of compound concentration showing <20 to <30% hemolysis in mouse RBC to MIC for fluconazole/ITC-susceptible Candida albicans ATCC MYA-2876; type: toxicity; conditions: red blood cells (erythrocytes), read-out: Selectivity Index
[19] = Selectivity index, ratio of CC50 for human A549 cells to MIC for Candida krusei ATCC 6258; type: toxicity; conditions: read-out: Selectivity Index
[20] = Selectivity index, ratio of compound concentration showing <20 to <30% hemolysis in mouse RBC to MIC for fluconazole/ITC-susceptible Candida albicans ATCC MYA-2310; type: toxicity; conditions: mouse red blood cells (RBC), read-out: Selectivity Index
[21] = Selectivity index, ratio of CC50 for human A549 cells to MIC for fluconazole/ITC-resistant Candida albicans ATCC 90819; type: toxicity; conditions: read-out: Selectivity Index
[22] = Hemolytic activity in mouse RBC at […] after 1 hr relative to control; type: ADME, cell-based, Erythrocyte; conditions: red blood cells (erythrocytes), read-out: Activity; also: tested at 0.48 µg/mL
Candida albicans [23] = assay: Antifungal activity against fluconazole/ITC-resistant Candida albicans ATCC 10231 measured after 48 hrs by CLSI M27-A3 protocol based method; type: functional; conditions: ATCC 10231, 48 h
[24] = Selectivity index, ratio of compound concentration showing <20 to <30% hemolysis in mouse RBC to MIC for Aspergillus terreus ATCC MYA-3633; type: toxicity; conditions: mouse red blood cells (RBC), read-out: Selectivity Index
[25] = Selectivity index, ratio of CC50 for human A549 cells to MIC for fluconazole/ITC-resistant Candida albicans ATCC 64124; type: toxicity; conditions: read-out: Selectivity Index
[26] = Selectivity index, ratio of compound concentration showing <20 to <30% hemolysis in mouse RBC to MIC for Aspergillus flavus ATCC MYA-3631; type: toxicity; conditions: mouse red blood cells (RBC), read-out: Selectivity Index
Enterococcus = assay: Antibacterial activity against vancomycin-resistant Enterococcus; type: functional, organism-based
Staphylococcus aureus = assay: Antibacterial activity against methicillin-resistant Staphylococcus aureus; type: functional, organism-based
[27] = Selectivity index, ratio of CC50 for human A549 cells to MIC for fluconazole/ITC-susceptible Candida albicans ATCC MYA-2876; type: toxicity; conditions: read-out: Selectivity Index
[28] = Selectivity index, ratio of compound concentration showing <20 to <30% hemolysis in mouse RBC to MIC for Candida parapsilosis ATCC 22019; type: toxicity; conditions: mouse red blood cells (RBC), read-out: Selectivity Index
Candida albicans [29] = assay: Antifungal activity against fluconazole/ITC-resistant Candida albicans ATCC MYA-1237 measured after 48 hrs by CLSI M27-A3 protocol based method; type: functional; conditions: ATCC MYA-1237, 48 h
[30] = target: Voltage-gated inwardly rectifying potassium channel KCNH2 (Homo sapiens, UniProt Q12809); assay: Inhibition of [3H]-dofetilide binding to human ERG expressed in HEK293 cell membranes measured after 1 hr by liquid scintillation counting method
Voltage-gated inwardly rectifying potassium channel KCNH2, sequence (Q12809 whole entry): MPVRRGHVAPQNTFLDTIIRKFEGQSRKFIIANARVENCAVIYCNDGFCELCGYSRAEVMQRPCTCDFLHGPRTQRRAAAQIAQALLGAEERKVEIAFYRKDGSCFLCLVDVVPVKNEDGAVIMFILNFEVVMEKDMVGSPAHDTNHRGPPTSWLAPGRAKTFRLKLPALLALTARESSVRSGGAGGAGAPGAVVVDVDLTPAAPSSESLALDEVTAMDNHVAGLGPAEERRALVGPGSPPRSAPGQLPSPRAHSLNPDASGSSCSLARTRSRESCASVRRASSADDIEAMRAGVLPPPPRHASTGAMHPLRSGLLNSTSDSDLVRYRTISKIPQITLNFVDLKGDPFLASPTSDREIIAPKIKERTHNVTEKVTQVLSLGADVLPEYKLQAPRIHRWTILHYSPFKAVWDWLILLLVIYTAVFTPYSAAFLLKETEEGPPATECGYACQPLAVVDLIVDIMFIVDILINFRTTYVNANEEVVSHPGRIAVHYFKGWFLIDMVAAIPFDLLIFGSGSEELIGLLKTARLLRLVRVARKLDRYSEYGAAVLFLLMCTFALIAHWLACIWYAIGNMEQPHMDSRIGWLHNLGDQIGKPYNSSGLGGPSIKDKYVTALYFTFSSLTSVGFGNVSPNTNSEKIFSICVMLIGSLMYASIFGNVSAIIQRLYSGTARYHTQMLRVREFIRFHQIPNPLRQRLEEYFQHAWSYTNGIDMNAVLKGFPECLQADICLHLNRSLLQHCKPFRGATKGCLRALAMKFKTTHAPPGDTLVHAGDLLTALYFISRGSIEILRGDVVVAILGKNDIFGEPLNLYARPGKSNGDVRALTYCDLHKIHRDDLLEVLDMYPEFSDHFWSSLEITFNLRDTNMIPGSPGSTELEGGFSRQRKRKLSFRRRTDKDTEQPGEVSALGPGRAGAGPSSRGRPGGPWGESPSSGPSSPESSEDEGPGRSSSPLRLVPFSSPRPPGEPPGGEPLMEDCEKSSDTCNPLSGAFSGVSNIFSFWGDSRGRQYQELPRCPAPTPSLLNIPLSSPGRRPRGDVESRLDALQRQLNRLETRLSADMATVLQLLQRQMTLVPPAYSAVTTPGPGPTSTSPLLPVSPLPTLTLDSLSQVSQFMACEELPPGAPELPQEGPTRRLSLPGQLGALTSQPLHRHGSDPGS

[31] = Selectivity index, ratio of CC50 for human A549 cells to MIC for Aspergillus nidulans ATCC 38163; type: toxicity; conditions: read-out: Selectivity Index
[32] = Hemolytic activity in mouse RBC at 31.3 ug/ml after 1 hr relative to control; type: ADME, cell-based, Erythrocyte; conditions: red blood cells (erythrocytes), read-out: Activity
[33] = Selectivity index, ratio of CC50 for human A549 cells to MIC for Aspergillus terreus ATCC MYA-3633; type: toxicity; conditions: read-out: Selectivity Index
BEAS-2B = assay: Cytotoxicity against human BEAS2B cells after 24 hrs by resazurin based assay; type: cell-based
Listeria monocytogenes = assay: Antibacterial activity against Listeria monocytogenes; type: functional, organism-based
[34] = Selectivity index, ratio of CC50 for human A549 cells to MIC for fluconazole/ITC-resistant Candida albicans ATCC MYA-1003; type: toxicity; conditions: read-out: Selectivity Index
[35] = Selectivity index, ratio of compound concentration showing <20 to <30% hemolysis in mouse RBC to MIC for fluconazole/ITC-resistant Candida albicans ATCC MYA-1003; type: toxicity; conditions: mouse red blood cells (RBC), read-out: Selectivity Index
[36] = Hemolytic activity in mouse RBC at 62.5 ug/ml after 1 hr relative to control; type: ADME, cell-based, Erythrocyte; conditions: red blood cells (erythrocytes), read-out: Activity
[37] = Selectivity index, ratio of CC50 for human A549 cells to MIC for fluconazole/ITC-resistant Candida albicans ATCC MYA-1237; type: toxicity; conditions: read-out: Selectivity Index
[38] = Selectivity index, ratio of compound concentration showing <20 to <30% hemolysis in mouse RBC to MIC for fluconazole/ITC-resistant Candida albicans ATCC 64124; type: toxicity; conditions: red blood cells (erythrocytes), read-out: Selectivity Index
[39] = Hemolytic activity in mouse RBC at 3.9 ug/ml after 1 hr relative to control; type: ADME, cell-based, Erythrocyte; conditions: red blood cells (erythrocytes), read-out: Activity

COc1ccc(N/N=C/c2ccc(-c3cccc(/C=N/Nc4ccc(OC)cc4)c3)cc2)cc1
selectivity ratio [1]: 1 to 32 | MIC (Candida albicans [2]): 3.9 µg/mL (≈ 8.66 µM) | selectivity ratio [3]: 0.6 | selectivity ratio [4]: 2.3 | selectivity ratio [5]: 1 to 32 | hemolysis at 1 h, 15.6 ug/ml ([6]; at 15.6 µg/mL): 7.8% | hemolysis at 1 h, 0.975 ug/ml [6]: 2.6% | selectivity ratio [7]: 1 to 32 | selectivity ratio [8]: 1 to 32 | selectivity ratio [9]: 1 to 32 | selectivity ratio [10]: 2.3 | MIC (Candida albicans [11]): 3.9 µg/mL (≈ 8.66 µM) | hemolysis at 1 h, 7.8 ug/ml [12]: 2.6% | MIC (Aspergillus terreus): > 31.3 µg/mL | MIC (Pichia kudriavzevii): 3.9 µg/mL (≈ 8.66 µM) | CC50 (A549): 18.2 µg/mL (≈ 40.4 µM) | hemolysis at 1 h, 1.95 ug/ml [13]: 4.5% | MIC (Candida albicans [14]): 15.6 µg/mL (≈ 34.6 µM) | MIC (Aspergillus flavus): > 31.3 µg/mL | MIC (Candida parapsilosis): > 31.3 µg/mL | selectivity ratio [15]: 9.3 | selectivity ratio [16]: 0.6 | MIC (Aspergillus nidulans): 31.3 µg/mL (≈ 69.5 µM) | selectivity ratio [17]: 1 to 32 | selectivity ratio [18]: 1 to 32 | selectivity ratio [19]: 4.7 | selectivity ratio [20]: 1 to 32 | selectivity ratio [21]: 4.7 | hemolysis at 1 h, […] [22]: 0% | MIC (Candida albicans [23]): 1.95 µg/mL (≈ 4.33 µM) | selectivity ratio [24]: 1 to 32 | selectivity ratio [25]: 1.2 | selectivity ratio [26]: 1 to 32 | Activity (Enterococcus): inactive | Activity (Staphylococcus aureus): inactive | selectivity ratio [27]: 4.7 | selectivity ratio [28]: 1 to 32 | MIC (Candida albicans [29]): 3.9 µg/mL (≈ 8.66 µM) | pIC50 [30]: < 4.52 | selectivity ratio [31]: 0.6 | hemolysis at 1 h, 31.3 ug/ml [32]: 9.6% | selectivity ratio [33]: 0.6 | CC50 (BEAS-2B): 14.1 µg/mL (≈ 31.3 µM) | Activity (Listeria monocytogenes): inactive | selectivity ratio [34]: 2.3 | selectivity ratio [35]: 1 to 32 | hemolysis at 1 h, 62.5 ug/ml [36]: 18.8% | selectivity ratio [37]: 4.7 | selectivity ratio [38]: 1 to 32 | hemolysis at 1 h, 3.9 ug/ml [39]: 3%
